Results published in paper PMC8400955 (Pharmaceuticals, 2021).
Entries after “also recorded” stand apart in the source; their conditions may differ. Where two headings read alike, the source gives them in different places.

Columns and labels:
[1] = Plasma protein binding by equilibrium dialysis, monkey; assay type: in vitro ADME; conditions: plasma (EDTA-K2 as anticoagulant)
Method: The in vitro binding of ZB716 to plasma proteins was determined by equilibrium dialysis technique in mouse, rat, dog, monkey, and human plasma (EDTA-K2 as anticoagulant), over the concentration range of 0.1–10 μM. The free concentration of ZB716 was below the lower limit of quantitation at 0.1, 1, and 10 μM in human, monkey, dog, rat, and mouse plasma.
The equilibrium dialysis method was used to investigate the in vitro binding of ZB716 to human, monkey, dog, rat, and mouse plasma proteins. The dialysis phosphate buffer solution (100 mM, pH 7.4) and plasma samples containing 0.1, 1, and 10 μM of ZB716 were added to separate chambers of dialysis wells of the HTDialysis device. The dialysis plate was placed in an incubator at 37 °C with 5% CO2 at approximately 100 rpm for 6 h. After incubation, the seal was removed, and 50 μL each of post-dialysis samples was pipetted from both the buffer and plasma chambers into fresh 96-well plates. The samples were analyzed via UPLC–MS/MS. The bound fraction, unbound fraction, recovery (%), and remaining (%) were calculated by Equations (2)–(5):%Unbound = (Conc.buffer chamber/Conc.plasma chamber) × 100(2) %Bound = 100% − %Unbound (3) %Recovery = (Conc.buffer chamber + Conc.plasma chamber)/Conc.Total sample × 100 (4) %Remaining = Conc.6h/Conc.0h × 100 (5)

[2] = Bidirectional permeability across Caco-2 cell monolayers; assay type: in vitro ADME; conditions: human; for recovery at 120 min, 1 μM: Caco-2, Caco-2, 1 μM; for recovery at 120 min, 5 μM: Caco-2, Caco-2, 5 μM; for recovery at 120 min, 15 μM: Caco-2, Caco-2, 15 μM
Method: (§1) The bidirectional permeability and absorption mechanism of ZB716 was evaluated across Caco-2 cell monolayers.
(§2) The apical-to-basolateral (A–B) and basolateral-to-apical (B–A) transport of ZB716 in HBSS (25 mM HEPES) with 1% BSA was measured across Caco-2 cell monolayers. […] All incubations were performed in triplicate, and the integrity of the cell monolayers was confirmed using the marker Lucifer yellow.
(§3) The slope, k, was determined by linear
(§4) using the following equation: […]
(§5) 1.4 Intestinal Mucosal Permeation of ZB716
(§6) Papp= VAArea х timeх ሾdrugሿreceiverሾdrugሿinitial,donor

Caco-2 cell monolayers = assay: as above; assay type: in vitro ADME; conditions: Caco-2, according to the results at 15 μM
Method: as §1, §2, §3, §4, §5, §6

CYP2B6 [3] = target: T1, CYP2B6 (Homo sapiens, UniProt P20813); assay: CYP phenotyping, recombinant CYP2B6
T1 sequence (P20813 1-491): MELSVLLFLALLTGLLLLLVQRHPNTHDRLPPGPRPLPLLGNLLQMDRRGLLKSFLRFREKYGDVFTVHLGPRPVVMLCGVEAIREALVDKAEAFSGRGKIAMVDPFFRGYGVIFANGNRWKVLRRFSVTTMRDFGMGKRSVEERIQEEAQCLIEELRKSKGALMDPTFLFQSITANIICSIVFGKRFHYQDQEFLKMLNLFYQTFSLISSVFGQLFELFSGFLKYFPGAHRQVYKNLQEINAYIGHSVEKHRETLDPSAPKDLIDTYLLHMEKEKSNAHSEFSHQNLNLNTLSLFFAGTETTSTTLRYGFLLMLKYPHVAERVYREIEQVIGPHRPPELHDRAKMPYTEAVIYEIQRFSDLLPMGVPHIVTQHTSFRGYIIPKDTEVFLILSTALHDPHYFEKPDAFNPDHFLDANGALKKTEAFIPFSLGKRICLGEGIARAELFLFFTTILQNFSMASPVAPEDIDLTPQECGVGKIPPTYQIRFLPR
Method: Bactosomes prepared from E. coli that heterologously expressed individual human CYP isoforms together with human CYP reductase were obtained from CYPEX LTD (Scotland, UK), and stored at −80 °C prior to use. […] Timepoints were taken at 0, 5, 10, 15, 20, and 30 min. Substrate disappearance was used to calculate intrinsic clearance (Clint) and half-life (t1/2). All incubations were performed in triplicate. […] The chemical inhibitors for CYP1A2, 2A6, 2B6, 2C8, 2C9, 2C19, 2D6, and 3A4 were furafylline, tranylcypromine, ticlopidine, montelukast, sulfaphenazole, N-3-benzylnirvanol, quinidine, and ketoconazole, respectively. Timepoints were collected at 0, 15, 30, 45, and 60 min, and the remaining percentage of the parent drug at each timepoint was calculated (the calculation details are available in the Supplementary Materials). All incubations were performed in triplicate.
1.3.1 Intrinsic Clearance (Heterologously Expressed Human Cytochrome P450) All calculations were carried out using Microsoft Excel. The slope, k, was determined by linear regression of the natural logarithm of percent parent disappearance vs. incubation time curve. Peak areas for test article and internal standard were determined from extracted ion chromatograms. The peak area ratio was used to calculated for the results.
The half-life value (t1/2 rCYPi) was determined from the slope value: […]

CYP2B6 [4] = assay: CYP induction (enzyme activity) in cryopreserved human hepatocytes, CYP2B6; conditions: for fold induction at 72 h, 0.15 µM / fold induction at 72 h, 1.5 µM / fold induction at 72 h, 5 µM / fold induction at 72 h, 15 µM: human, plated cryopreserved human hepatocytes
Method: The UPLC–MS/MS (SHIMADZU, LC-30AD) equipped with waters Xselect®HSS T3 2.5 μm (2.1 × 50 mm) was used to detect the marker metabolites in the enzyme activity assay. The fold-induction enzyme activity was determined using the ratio calculation (the calculation details are available in the Supplementary Materials).
CYP activity was expressed as pmol/min/million cells where pmol was defined as the amount of metabolite formed during the reaction. […] The fold-induction enzyme activity was determined by the ratio:
Fold of induction = CYP activity(induced) / CYP activity(vehicle)
% of positive control = (𝑪𝒀𝑷 𝒂𝒄𝒕𝒊𝒗𝒊𝒕𝒚(𝒊𝒏𝒅𝒖𝒄𝒆𝒅)ି 𝑪𝒀𝑷 𝒂𝒄𝒕𝒊𝒗𝒊𝒕𝒚(𝑫𝑴𝑺𝑶))(𝑪𝒀𝑷 𝒂𝒄𝒕𝒊𝒗𝒊𝒕𝒚(𝒑𝒐𝒔𝒊𝒕𝒊𝒗𝒆 𝒄𝒐𝒏𝒕𝒓𝒐𝒍)ି 𝑪𝒀𝑷 𝒂𝒄𝒕𝒊𝒗𝒊𝒕𝒚(𝑫𝑴𝑺𝑶))х 𝟏𝟎𝟎 Based on the enzyme activity, a minimum of 2-fold increase of a response compared to vehicle control and ≥ 20% of the positive control was considered as the cutoff for a positive signal in in vitro induction

CYP3A4 = CYP3A4 (Homo sapiens, UniProt P08684); assay: CYP inhibition in human liver microsomes, CYP3A4; assay type: in vitro ADME; parameters: 2D6, and 3A4) in human liver microsomes (0.2 mg/mL) in the presence of NADPH; from tissue; host or cells: human liver microsomes; conditions: HLM
CYP3A4, sequence (P08684 whole entry): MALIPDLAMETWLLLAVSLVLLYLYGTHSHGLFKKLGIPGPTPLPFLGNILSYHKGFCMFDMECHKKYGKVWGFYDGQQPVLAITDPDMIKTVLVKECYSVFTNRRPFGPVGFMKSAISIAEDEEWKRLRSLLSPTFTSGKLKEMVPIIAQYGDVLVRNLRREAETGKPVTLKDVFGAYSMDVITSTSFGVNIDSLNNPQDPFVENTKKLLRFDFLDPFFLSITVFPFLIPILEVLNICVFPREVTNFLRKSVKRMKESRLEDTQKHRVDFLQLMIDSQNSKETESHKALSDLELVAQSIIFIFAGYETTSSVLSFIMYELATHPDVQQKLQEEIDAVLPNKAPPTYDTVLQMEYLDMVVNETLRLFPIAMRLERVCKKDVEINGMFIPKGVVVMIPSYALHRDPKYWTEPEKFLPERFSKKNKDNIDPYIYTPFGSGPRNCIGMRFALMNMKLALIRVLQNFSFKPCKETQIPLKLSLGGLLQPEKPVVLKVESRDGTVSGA
Method: . The inhibition of CYP2B6 and 3A4 (when midazolam was used as the substrate) by ZB716 was not observed. The inhibitory potential of ZB716 on human CYP enzyme activities appears relatively low.
The final concentrations of ZB716 in the incubation system were 0, 0.05, 0.15, 0.5, 1.5, 5, and 15 µM (final organic solvent concentration ≤ 1%). […] . […] The concentrations of the isoform-specific metabolites derived from marker substrates were measured by UPLC–MS/MS. The IC50 values were calculated from the percentages of the rate of the metabolite formation relative to non-inhibited controls vs. the concentrations of ZB716 or positive control inhibitors. All incubations were performed in triplicate. The mean of the enzyme activity (% of non-inhibited control) for each concentration was plotted against the log inhibitor concentration, and fitted to an IC50 curve.

C[C@]12CC[C@@H]3c4ccc(B(O)O)cc4C[C@@H](CCCCCCCCC[S+]([O-])CCCC(F)(F)C(F)(F)F)[C@H]3[C@@H]1CC[C@@H]2O (stereo partly shown) [ZB716, fulvestrant-3-boronic acid]
recovery at 6 h, 0.1 μM ([1]; pH 7.4, 0.1 μM): < 68.2%
recovery at 6 h, 1 μM ([1]; pH 7.4, 1 μM): < 70%
recovery at 6 h, 10 μM ([1]; pH 7.4, 10 μM): < 87.2%
recovery at 120 min, 1 μM ([2]; read-out: Recovery A to B): < 66.6%
recovery at 120 min, 1 μM ([2]; read-out: Recovery B to A): 66.5 ± 0.7%
recovery at 120 min, 5 μM ([2]; read-out: Recovery A to B): < 67%
recovery at 120 min, 5 μM ([2]; read-out: Recovery B to A): 73.7 ± 1.5%
recovery at 120 min, 15 μM ([2]; read-out: Recovery A to B): 75.7 ± 2%
recovery at 120 min, 15 μM ([2]; read-out: Recovery B to A): 84.2 ± 4.8%
Papp A→B at 120 min, 1 μM ([2]; Caco-2, 1 μM): < 7.78 nm/s
Papp B→A at 120 min, 1 μM ([2]; Caco-2, 1 μM): 7.47 ± 0.316 nm/s
efflux ratio at 120 min, 1 μM ([2]; Caco-2, 1 μM): > 0.935
Papp A→B at 120 min, 5 μM ([2]; Caco-2, 5 μM): < 1.59 nm/s
Papp B→A at 120 min, 5 μM ([2]; Caco-2, 5 μM): 8.2 ± 1.27 nm/s
efflux ratio at 120 min, 5 μM ([2]; Caco-2, 5 μM): > 4.55
Papp A→B at 120 min, 15 μM ([2]; Caco-2, 15 μM): 1.88 ± 0.21 nm/s
Papp B→A at 120 min, 15 μM ([2]; Caco-2, 15 μM): 5.34 ± 0.28 nm/s
efflux ratio at 120 min, 15 μM ([2]; Caco-2, 15 μM): 2.87 ± 0.49
permeability class (Caco-2 cell monolayers): low permeability
half-life at 2 µM (CYP2B6 [3]; human): 41 ± 6.8 min
Clint (CYP2B6 [3]; recombinant CYP2B6, 2 µM ZB716): 0.343 ± 0.052 µL/min/pmol CYP
induction fold compared to the vehicle control (CYP2B6 [4]; all three donors, 1.5–15 μM): 2.98–6.40
induction percentage of the positive control (CYP2B6 [4]; all three donors, 1.5–15 μM): 37.4–92.1%
Percent of Control (CYP2B6 [4]; donor one, 0.15 µM): 2.22%
Percent of Control (CYP2B6 [4]; donor one, 1.5 µM): 17.2%
Percent of Control (CYP2B6 [4]; donor one, 5 µM): 70.6%
Percent of Control (CYP2B6 [4]; donor one, 15 µM): 73.0%
Percent of Control (CYP2B6 [4]; donor three, 0.15 µM): 2.61%
Percent of Control (CYP2B6 [4]; donor three, 1.5 µM): 39.2%
Percent of Control (CYP2B6 [4]; donor three, 5 µM): 37.4%
Percent of Control (CYP2B6 [4]; donor three, 15 µM): 4.18%
Percent of Control (CYP2B6 [4]; donor two, 0.15 µM): 3.16%
Percent of Control (CYP2B6 [4]; donor two, 1.5 µM): 19.8%
Percent of Control (CYP2B6 [4]; donor two, 5 µM): 71.7%
Percent of Control (CYP2B6 [4]; donor two, 15 µM): 92.1%
fold induction at 72 h, 0.15 µM (CYP2B6 [4]; donor one, 0.15 µM): 1.1 ± 0.05
fold induction at 72 h, 1.5 µM (CYP2B6 [4]; donor one, 1.5 µM): 1.77 ± 0.13
fold induction at 72 h, 5 µM (CYP2B6 [4]; donor one, 5 µM): 4.14 ± 0.06
fold induction at 72 h, 15 µM (CYP2B6 [4]; donor one, 15 µM): 4.24 ± 0.47
fold induction at 72 h, 0.15 µM (CYP2B6 [4]; donor three, 0.15 µM): 1.14 ± 0.09
fold induction at 72 h, 1.5 µM (CYP2B6 [4]; donor three, 1.5 µM): 3.07 ± 0.36
fold induction at 72 h, 5 µM (CYP2B6 [4]; donor three, 5 µM): 2.98 ± 0.74
fold induction at 72 h, 15 µM (CYP2B6 [4]; donor three, 15 µM): 1.22 ± 0.42
fold induction at 72 h, 0.15 µM (CYP2B6 [4]; donor two, 0.15 µM): 1.19 ± 0.1
fold induction at 72 h, 1.5 µM (CYP2B6 [4]; donor two, 1.5 µM): 2.16 ± 0.07
fold induction at 72 h, 5 µM (CYP2B6 [4]; donor two, 5 µM): 5.21 ± 0.24
fold induction at 72 h, 15 µM (CYP2B6 [4]; donor two, 15 µM): 6.4 ± 0.16
IC50 (CYP3A4; CYP3A4-M, marker substrate Midazolam): not observed; also recorded: No Inhibition
IC50 (CYP3A4; CYP3A4-T, marker substrate Testosterone, read-out: IC50): 11.2 µM
